In US5491152A, “Derivatives of cyclic ethers and sulfides for the treatment of atherosclerosis” (The Du Pont Merck Pharmaceutical Company, priority 1994, dated 1996):

Each molecule was assayed against T1, Acyl-CoA: Cholesterol Acyltransferase (ACAT) (Rattus norvegicus, UniProt Q7TQM4) (assay: Inhibition of Acyl-CoA: Cholesterol Acyltransferase (ACAT) in hepatic microsomes (In Vitro Assay)). Settings: 75 μM 14C-oleoyl-CoA, pH 7.4, 37° C., 15 min preincubation, 10 min.
T1 construct: Microsomes were obtained by differential centrifugation; from tissue; host or cells: liver microsomes of male Sprague Dawley rats
T1 sequence (Q7TQM4 1-524): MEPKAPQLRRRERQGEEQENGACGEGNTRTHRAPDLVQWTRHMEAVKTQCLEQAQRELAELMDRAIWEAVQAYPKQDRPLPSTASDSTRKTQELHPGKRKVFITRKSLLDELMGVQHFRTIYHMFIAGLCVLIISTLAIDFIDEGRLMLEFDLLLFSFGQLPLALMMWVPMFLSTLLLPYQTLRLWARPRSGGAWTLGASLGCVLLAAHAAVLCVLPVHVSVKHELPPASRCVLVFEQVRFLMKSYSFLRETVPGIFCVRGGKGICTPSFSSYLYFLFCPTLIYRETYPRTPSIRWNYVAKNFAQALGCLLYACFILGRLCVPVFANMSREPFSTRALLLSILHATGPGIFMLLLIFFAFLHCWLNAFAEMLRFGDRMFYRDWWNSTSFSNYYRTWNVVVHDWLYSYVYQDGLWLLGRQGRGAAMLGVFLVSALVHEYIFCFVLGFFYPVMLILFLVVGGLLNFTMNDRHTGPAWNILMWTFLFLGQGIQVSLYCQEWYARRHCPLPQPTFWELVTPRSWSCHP
Type: biochemical, rat (male Sprague Dawley)
Procedure: A. Assay of the Inhibition of Acyl-CoA: Cholesterol Acyltransferase (ACAT) in Hepatic Microsomes (In Vitro Assay)
The ability of the compounds to inhibit ACAT, the enzyme responsible for the intracellular synthesis of cholesteryl esters, was tested as follows. Male Sprague Dawley rats weighing 150-300 g, were fed rat chow ad libitum. The animals were fasted for twenty-four hours prior to being euthanized by CO2. The livers were perfused in situ with 50 ml of cold 0.25 sucrose, excised, and homogenized in three volumes of 0.1M phosphate buffer, pH 7.4, that contained 0.5 mM EDTA (ethylenediamine-tetraacetic acid), 1.0 mM glutathione, 0.25M sucrose and 20 mM leupeptin. Microsomes were obtained by differential centrifugation; the supernatant from an initial spin at 15,000× g for 15 minutes was centrifuged at 105,000× g for 1 hour to pellet the microsomes. The microsomes were suspended in 0.1M phosphate buffer, pH 7.4 with 1 mM GSH and stored at -70° C. Microsomes were used within one month of preparation.
The control assay in a final volume of 200 μl consisted of 200 μg of microsomal protein, 75 μM ^14 C-oleoyl-CoA (10,000 dpm/nmol) in 0.1M phosphate, pH 7.4, that contained 1 mM glutathione. Compounds were added in 5 μl of DMSO (dimethyl sulfoxide) and additional controls were run with DMSO only. All components, except the oleoyl-CoA, were preincubated for 15 min. at 37° C. prior to the initiation of the reaction by the addition of oleoyl-CoA. The assay was terminated after 10 min by the addition of 4 ml of chloroform:methanol (2:1, v/v). 20,000 dpm of ^3 H-cholesteryl oleate and 10 μg of unlabeled cholesteryl oleate and oleic acid were added as an internal standard and carriers, respectively. After allowing 10 min. for lipid extraction, the samples were centrifuged at 1,000× g for 10 min to separate the solvent layers. The chloroform layer containing the neutral lipids was spotted onto a Baker SI250-Pa silica gel TLC plate and the plate developed using a hexane:diethyl ether:acetic acid (170:30:1) v/v/v) mobile phase. The lipids were visualized by their interaction with iodine vapor and the cholesteryl ester spot was scraped into a scintillation vial and counted. The specific activity of ACAT in the control incubation averaged 260 pmol/min/mg microsomal protein. The data obtained are expressed as the concentration at which ACAT activity is inhibited by 50% (IC50).

| Molecule | IC50 [µM] |
| --- | --- |
| CCCCCCC1=C(CCCCCC)CC(C(=O)Nc2c(Cl)cccc2Cl)SC1 (stereo not drawn) [Example 3] | 3 to 10 |
| CCCCCC1=C(CCCCC)CC(C(=O)Nc2ccc(F)cc2F)SC1 (stereo not drawn) [Example 30] | 11 to 50 |
| CSc1cc(C)nc(SC)c1NC(=O)C1CC(C)=C(C)CS1 (stereo not drawn) [Example 57] | < 2 |
| CCCCCC1C=CC(CCCCC)C(C(=O)Nc2c(Cl)cccc2Cl)S1 (stereo not drawn) [Example 68] | < 2 |
| CCCCC1=C(CCCC)CC(C(=O)Nc2c(C)cccc2C)SC1 (stereo not drawn) [Example 41] | < 2 |
| CCCCCC1=C(CCCCC)CC(C(=O)Nc2c(C)nn(C)c2SC)SC1 (stereo not drawn) [Example 39] | < 2 |
| CC1=C(C)CC(C(=O)Nc2c(C(C)C)cccc2C(C)C)OC1 (stereo not drawn) [Example 104] | 11 to 50 |
| CSc1cc(C)nc(SC)c1NC(=O)C1SC(c2ccccc2)C=CC1c1ccccc1 (stereo not drawn) [Example 132] | < 2 |
| CCCCCC1=C(CCCCC)CC(C(=O)Nc2c(SC)cc(C)nc2SC)SC1 (stereo not drawn) [Example 31] | < 2 |
| CCCCC1=C(CCCC)CC(C(=O)Nc2c(C(C)C)cccc2C(C)C)SC1 (stereo not drawn) [Example 40] | < 2 |
| CCCC1C=CC(CCC)C(C(=O)Nc2c(SC)cc(C)nc2SC)S1 (stereo not drawn) [Example 140] | < 2 |
| CCCCCC1C=CC(CCCCC)C(C(=O)Nc2c(C(C)C)cccc2C(C)C)S1 (stereo not drawn) [Example 66, N-(2,6-diisopropylphenyl)-3,6-dihydro-3,6-dipentyl-2H-thiopyran-2-carboxamide] | < 2 |
| CCCCCCCCC1=C(CCCCCCCC)CC(C(=O)Nc2c(SC)cc(C)nc2SC)SC1 (stereo not drawn) [Example 35] | < 2 |
| CCCCO[C@H]1[C@@H](OC)O[C@H](C(=O)Nc2c(SC)cc(C)nc2SC)C(OCc2ccccc2)[C@@H]1OCCCC (stereo in doubt) [Example 426, (2S,3R,4S,5R,6S)-N-[2,4-bis(methylthio)-6-methylpyridin-3-yl]-3-benzyloxy-4,5-dibutoxy-6-methoxy-3,4,5,6-tetrahydro-2H-pyran-2-carboxamide] | 11 to 50 |
| CCCCCCSC1CC(=O)CC(C(=O)Nc2c(SC)cc(C)nc2SC)S1 (stereo not drawn) [Example 402, N-[2,4-bis(methylthio)-6-methylpyridin-3-yl]-6-hexylthio-2,3,5,6-tetrahydro-4H-thiopyran-4-one-2-carboxamide] | < 2 |
| CCCCCC1=C(CCCCC)CC(C(=O)Nc2c(Cl)cccc2Cl)SC1 (stereo not drawn) [Example 29] | < 2 |
| CCCCCCC1=C(CCCCCC)CC(C(=O)Nc2c(C(C)C)cccc2C(C)C)SC1 (stereo not drawn) [Example 1] | < 2 |
| CCCCCC1C=CC(CCCCC)C(C(=O)Nc2ccc(F)cc2F)S1 (stereo not drawn) [Example 69] | 3 to 10 |
| CSc1cc(C)nc(SC)c1NC(=O)C1SC(CCCSC2CCCCC2)C=CC1CCCSC1CCCCC1 (stereo not drawn) [Example 184] | < 2 |
| CCCCCC1=C(CCCCC)CC(C(=O)Nc2c(C(C)C)cccc2C(C)C)SC1 (stereo not drawn) [Example 27, N-(2,6-diisopropylphenyl)-3,6-dihydro-4,5-dipentyl-2H-thiopyran-2-carboxamide] | < 2 |
| CSc1cc(C)nc(SC)c1NC(=O)C1CC(C)=C(C)CO1 (stereo not drawn) [Example 106, N-[2,4-bis(methylthio)-6-methyl-3-pyridyl]-2,3-dihydro-4,5-dimethyl-2H-pyran-2-carboxamide] | 11 to 50 |
| N-[2,6-bis(1-methylethyl)phenyl]-6,7-dimethoxy-1,2,3,4-tetrahydro-2-thianaphthalene-1-carboxamide [Example 613] | 11 to 50 |
| CCCCCOc1cc2c(cc1OC)CC(CCCC)CSC2C(=O)Nc1c(SC)cc(C)nc1SC (stereo not drawn) [Example 907, N-[2,4-bis(methylthio)-6-methylpyridin-3-yl]-4-butyl-7-methoxy-8-pentoxy-1,3,4,5-tetrahydro-2-benzothiepin-1-carboxamide] | < 2 |
| CCCCC1=C(CCCC)CC(C(=O)Nc2c(Cl)cccc2Cl)SC1 (stereo not drawn) [Example 42] | < 2 |
| CCCCCC1=C(CCCCC)CC(C(=O)Nc2ccc(SC)nc2)SC1 (stereo not drawn) [Example 34] | 11 to 50 |

Now from value to molecule:

| IC50 [µM] | Molecule |
| --- | --- |
| < 2 | CCCCCC1C=CC(CCCCC)[S+]([O-])C1C(=O)Nc1c(SC)cc(C)nc1SC (stereo not drawn) [Example 120] |
| 11 to 50 | CC(C)(C)C1C=CCC(C(=O)Nc2ccc(F)cc2F)S1 (stereo not drawn) [Example 17] |
| < 2 | CCCCCC1C=CC(CCCCC)C(C(=O)Nc2c(C)cccc2C)S1 (stereo not drawn) [Example 67] |
| < 2 | CCCCCCC1=C(CCCCCC)CC(C(=O)Nc2c(C)cccc2C)SC1 (stereo not drawn) [Example 2] |
| < 2 | CCCCCC1=CC(CCCCC)C(C(=O)Nc2c(C(C)C)cccc2C(C)C)SC1 (stereo not drawn) [Example 79] |
| 3 to 10 | CCCCCC1=C(CCCCC)CC(C(=O)Nc2cncnc2SC)SC1 (stereo not drawn) [Example 32] |
| < 2 | CCCCCC1=C(CCCCC)CC(C(=O)Nc2c(C)cccc2C)SC1 (stereo not drawn) [Example 28] |
| < 2 | CSc1cc(C)nc(SC)c1NC(=O)C1SC(CCCCl)C=CC1CCCCl (stereo not drawn) [Example 180] |
| < 2 | CCCCCC1C=CC(CCCCC)C(C(=O)Nc2c(SC)cc(C)nc2SC)S1 (stereo not drawn) [Example 70, N-[2,4-bis(methylthio)-6-methylpyridin-3-yl]-3,6-dipentyl-2,3-dihydro-2H-thiopyran-2-carboxamide] |
| 3 to 10 | CC1=C(C)CC(C(=O)Nc2c(C(C)C)cccc2C(C)C)SC1 (stereo not drawn) [Example 53] |
| 11 to 50 | CCCCCC1=C(CCCCC)CC(C(=O)Nc2cccnc2SC)SC1 (stereo not drawn) [Example 33] |
| 3 to 10 | CSc1cc(C)nc(SC)c1NC(=O)C1SCC=CC1OC(C)=O (stereo not drawn) [Example 168] |

What follows are molecules tested on ACAT (assay: Systemic availability of ACAT inhibitors (Ex Vivo Assay): ACAT activity in livers from orally dosed rats). Settings: rat, oral gavage 10 mg/kg, days 1-3, livers taken 3 h after last dose; class symbols.
Set-up: species or system rat (male (CD) Sprague Dawley)
Procedure: B. Assay for the Systemic Availability of ACAT Inhibitors (Ex Vivo Assay)
The inhibition of ACAT activity in livers obtained from rats orally dosed with an inhibitor was used as a determination of the compound's systemic availability. The ability of ACAT inhibitors to affect cholesterol esterification in livers obtained from dosed animals was tested as follows. This assay is also referred to herein as the Ex Vivo Assay. Male (CD) Sprague Dawley rats weighing from 190-210 g were fed purina lab chow ad libitum. Rats, three per group, were orally gavaged with 10 mg/kg of active ACAT inhibitor. The compounds were dissolved in ethanol (10% of final volume); a PEG solution (80 propylene glycol:20 polyethylene glycol 400, w:w) was added and the compound was mixed completely prior to dosing. A control group received the dosing vehicle alone. The animals were dosed once on Day 1 (am), twice on Day 2 (am and pm) and once on the morning of Day 3. Three hours after the last dose animals were euthanized using CO2. Livers were perfused with a 0.25M sucrose solution, excised, and frozen. Livers were thawed and resuspended in buffer (2 mL/g, 0.1M Phosphate, pH 7.4, 1.0 mM glutathione, 0.5 mM EDTA, 20 μM leupeptin, 60 μM benzamidine, and 0.25M sucrose). The samples were homogenized and post nuclear microsomes were obtained by centrifugation: 1.000× g for 5 min. and the resulting supernatant, 100,000× g for 1 hr. Microsomes were resuspended in phosphate buffer to approximately 25 mg/mL and frozen at -70° C. until assayed for ACAT activity.
ACAT assays contained in a final volume of 200 μl:100 ug microsomal protein, 75 μM ^14 C-oleoyl-CoA (10,000 dpm/nmol), 0.75 mg bovine serum albumin, 0.1M phosphate buffer, pH 7.4, and 1 mM glutathione. All components, except the oleoyl-CoA, were preincubated for 15 min at 37° C. prior to the initiation of the reaction by the addition of oleoyl-CoA. The assay was terminated after 10 min and ACAT activity determined as described in section A above. The average specific activity of ACAT in the vehicle control group was 661 +/- 64 pmol/min/mg (SEM). The data (% inhibition) are expressed as 100 minus the % ACAT activity in livers from dosed animals versus those from a vehicle control group.

| Molecule | Inhibition of ACAT, Ex Vivo Assay (% inhibition) |
| --- | --- |
| CCCCCC1C=CC(CCCCC)C(C(=O)Nc2c(C(C)C)cccc2C(C)C)S1 (stereo not drawn) [Example 66, N-(2,6-diisopropylphenyl)-3,6-dihydro-3,6-dipentyl-2H-thiopyran-2-carboxamide] | ++ (>50%) |
| CCCCCC1C=CC(CCCCC)C(C(=O)Nc2c(SC)cc(C)nc2SC)S1 (stereo not drawn) [Example 70, N-[2,4-bis(methylthio)-6-methylpyridin-3-yl]-3,6-dipentyl-2,3-dihydro-2H-thiopyran-2-carboxamide] | ++ (>50%) |
| CCCCC1=C(CCCC)CC(C(=O)Nc2c(Cl)cccc2Cl)SC1 (stereo not drawn) [Example 42] | + (10-49%) |

Same assay, conditions: rat, oral gavage 10 mg/kg, days 1-3, livers taken 3 h after last dose; given as number

| Molecule | Inhibition of ACAT, Ex Vivo Assay (% inhibition) [%] |
| --- | --- |
| CCCCCC1=C(CCCCC)CC(C(=O)Nc2c(SC)cc(C)nc2SC)SC1 (stereo not drawn) [Example 31] | < 10 |
| CCCC1C=CC(CCC)C(C(=O)Nc2c(SC)cc(C)nc2SC)S1 (stereo not drawn) [Example 140] | < 10 |
